pIC50: −log10 of the molar value. Like-named read-outs stand apart in the source and are kept apart here.
Assays:
[1] = Platelet toxicity test using human blood progenitor cells (WST); assay type: cell-based; conditions: human bone marrow CD34+ progenitor cells, maximum concentration 25 μM
Experimental: Test Example 2: Platelet Toxicity Test Using Human Blood Progenitor Cells
Human bone marrow CD34+ progenitor cells (Lonza, 2M-101B) stored at −80° C. were thawed, spun down at 150 g for 10 minutes at 20° C., and a medium (StemSpan Expansion Supplement, STEM CELL TECHNOLOGIES, ST-02696) to which cytokines (StemSpan SFEM II, STEM CELL TECHNOLOGIES, ST-09655) was added was added to adjust to 2×10^4/well, the mixture was seeded in 12well non-coat dish (Corning, 3513), was incubated for 10 days at 37° C., 5% CO2. After 10 days, the cells were collected and spun down at 150 g for 10 minutes at 20° C., and a medium (StemSpan Expansion Supplement) containing cytokines (StemSpan SFEM II) was added so that the number of cells became 2×10^5 cells/ml. 50 μl of the cell suspension was seeded to each well of a 96-well plate (Corning, 3596) and allowed to stand overnight in an incubator at 37° C., 5% CO2. The next day, 50 μl of the test compound was treated to each well and allowed to stand for 48 hours in the incubator at 37° C., 5% CO2 (n=2). At this time, the test compound dissolved in 100% DMSO was serially diluted with DMSO at a 3-fold ratio, and then a medium containing cytokine was added to adjust the final concentration to 25, 8.33, 2.78, 0.93, 0.31, 0.1 μM. After that, 10 μl of WST (Cell count reagent SF, Nacalai Tesque Inc., 07553-44) was added to each well, and the mixture was allowed to stand in the incubator for 4 hours at 37° C., 5% CO2, and then the multi-label reader 2030 ARVO X4 (PerkinElmer) was used to measure the absorbance. At this time, the absorbance at 450 nm and the absorbance at 620 nm were obtained, and the difference between 450 nm and 620 nm was used as the measured value. The measured values were analyzed by Excel and TIBCO Spotfire, and IC50 values were calculated. At this time, for control (−), the well without cells was set as n=6 for one row, and the average value was calculated, and for control (+), the well in which DMSO was added to the cells so as to have the same concentration as the compound treatment group was set as n=6 for one row, and the average value was calculated and corrected for each plate. For the test compound, the average value of n=2 was used.

[2] = tested on: HDACs other than HDAC2 (HDAC2 knockout K562 cells); assay: Evaluation of HDAC2 selectivity: H3K9 histone acetylation in HDAC2 knockout K562 cells (AlphaLISA); assay type: cell-based; conditions: Homo sapiens, maximum concentration 83.3 μM, 100% = SAHA-treated group, read-out: maximum inhibition rate (H3K9 histone acetylation);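 further: 0% inhibition equals DMSO-treated group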
Experimental: Test Example 3: Evaluation of HDAC2 Selectivity
K562 cells were cultured in RPMI1640 medium (SIGMA, R8758) containing 10% FBS (Hyclone, SH30070.03) and 1% penicillin streptomycin (Nacalai Tesque, 26252-94). CompoZr (registered trademark) Zinc Finger Nuclease (Merck) targeting HDAC2 sequences was transfected into K562 cells by electroporation using Nucleofector (Lonza). The cells after transfection were subjected to limiting dilution, and DNA sequencing was performed on the cell clones in which mutations were detected by the PCR method. Cell clones lacking a base number that was not a multiple of 3 in both alleles were identified, and a single-cell cloning was performed on the cell clones to produce HDAC2 knockout K562 cells. It was confirmed that the expression of HDAC2 was not detected by Western blotting in the prepared cells.
By evaluating the H3K9 histone acetylation-enhancing activity of the test compound using HDAC2 knockout K562 cells, the inhibitory activity against HDACs other than HDAC2 was evaluated.
HDAC2 knockout K562 cells stored in liquid nitrogen were thawed and cultured in RPMI1640 medium (Nacalai Tesque, 30264-85) for 2 to 4 days. Using Echo555 (Beckman Coulter), the test compound was dispensed to the assay plate (Corning, 4513) at 37.5 nL/well, and then HDAC2 knockout K562 cells were seeded to 125 cells/4.5 μL/well, and stirred. At this time, the test compound was treated at 8 points (n=2) in the 3-fold dilution series from the maximum concentration of 83.3 μM. After culturing at 37° C. and 5% CO2 overnight, 1.5 μL/well of Lysis buffer (PerkinElmer, AL009F1) was added, and after incubating at room temperature for 15 minutes, 3 μL/well of Extraction buffer (PerkinElmer, AL009F2) was added and the mixture was incubated for 10 minutes at room temperature. Then, 5× antibody solution (prepared by diluting anti-H3K9 Acceptor beads (PerkinElmer, AL114M) 75-fold with a detection buffer prepared by diluting 10×Cell-Histone Detection buffer (PerkinElmer, AL009F3) 10-fold with ultrapure water, and diluting Biotinylated anti H3 antibody (PerkinElmer, AL118M) diluted 150 times with the detection buffer) was added at 3 μL/well, and after incubating at room temperature for 60 minutes, then 5× donor beads solution (prepared by diluting Streptavidin Donor beads (PerkinElmer, 6760002) 75 fold with the detection buffer) was added at 3 μL/well, and the mixture was incubated again at room temperature for 60 minutes, and then the emission value was measured using PHERAstar (BMG LABTECH) (excitation=680 nm, […]). […] For cell toxicity, cell viability rate was evaluated by the PrestoBlue method.

[3] = target: T1, HDAC2 Human recombinant C-terminal FLAG-tag (Homo sapiens, UniProt Q92769); assay: Measurement of HDAC2 enzyme inhibitory activity (HTRF); assay type: biochemical; conditions: recombinant HDAC2, H3K9ac peptide
T1 construct: FLAG (C); purchased BPS Bioscience 50052
How it was run: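 Compounds were tested at 8 points in 3-fold dilutions from 99 μM final (n=2) against FLAG-tagged HDAC2 with biotinylated H3K9ac (1-21) peptide (0.6 μM as added). The reaction ran 3 h at room temperature in Tris pH 8.0 buffer, then was stopped with SAHA. Deacetylated product was detected by HTRF (Eu-anti-H3K9me0 antibody, streptavidin-XL665) as the 665/615-620 nm ratio.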

[4] = 3 hours room temperature, read-out: HDAC2 IC50

T1 sequence (Q92769 whole entry): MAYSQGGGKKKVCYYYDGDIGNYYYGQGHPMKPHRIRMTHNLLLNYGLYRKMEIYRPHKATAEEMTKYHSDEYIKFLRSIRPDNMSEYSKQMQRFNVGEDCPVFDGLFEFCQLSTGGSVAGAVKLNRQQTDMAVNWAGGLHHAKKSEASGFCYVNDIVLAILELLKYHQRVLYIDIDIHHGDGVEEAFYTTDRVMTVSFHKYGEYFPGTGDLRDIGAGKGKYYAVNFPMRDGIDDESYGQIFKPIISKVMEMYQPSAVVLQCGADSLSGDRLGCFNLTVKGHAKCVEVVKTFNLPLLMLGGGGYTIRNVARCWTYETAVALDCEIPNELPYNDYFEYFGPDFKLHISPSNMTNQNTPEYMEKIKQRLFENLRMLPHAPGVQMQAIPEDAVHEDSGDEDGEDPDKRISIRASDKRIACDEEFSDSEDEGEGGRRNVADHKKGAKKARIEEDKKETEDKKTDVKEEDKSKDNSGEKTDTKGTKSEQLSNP

Cn1cc(-c2ccc(C(=O)Nc3nc(-c4cccs4)ccc3N)nn2)cn1 [Compound I-028]
IC50 at 48 h [1]: > 25000 nM | inhibition at up to 83.3 µM [2]: 8% | pIC50 [3, 4]: 6.64

Nc1ccc(-c2ccc(F)nc2)cc1NC(=O)c1ccc(N2CCOCC2)cn1 [Compound I-093]
IC50 at 48 h [1]: > 25000 nM | pIC50 [3, 4]: 6.89

Cn1cc(-c2ccc(N)c(NC(=O)c3ccc(C4CC4)cn3)c2)cn1 [Compound I-112]
IC50 at 48 h [1]: > 25000 nM | pIC50 [3, 4]: 6.70

Nc1ccc(-c2ccc(F)nc2)cc1NC(=O)c1cnc(OCF)cn1 [Compound I-121]
IC50 at 48 h [1]: > 25000 nM | pIC50 [3, 4]: 6.62

Nc1ccc(-c2ccc(F)nc2)cc1NC(=O)c1cnc(C2CC2)cn1 [Compound I-129]
IC50 at 48 h [1]: > 25000 nM | pIC50 [3, 4]: 7.03

CCOc1cnc(C(=O)Nc2cc(-c3cnn(C)c3)ccc2N)cn1 [Compound I-139]
IC50 at 48 h [1]: > 25000 nM | pIC50 [3, 4]: 6.74

Nc1ccc(-c2ccc(F)nc2)nc1NC(=O)c1cnc(C2CC2)cn1 [Compound I-157]
IC50 at 48 h [1]: > 25000 nM | inhibition at up to 83.3 µM [2]: 7%

Nc1ccc(-c2ccccc2)nc1NC(=O)c1cnc(C2CC2)cn1 [Compound I-158]
IC50 at 48 h [1]: > 25000 nM | inhibition at up to 83.3 µM [2]: 7%

Nc1ccc(-n2cccc2)nc1NC(=O)c1ccc(C2CC2)cn1 [Compound I-160]
IC50 at 48 h [1]: > 25000 nM | inhibition at up to 83.3 µM [2]: 6%

CCc1cnc(C(=O)Nc2cc(-c3cnn(C)c3)ccc2N)cn1 [Compound I-250]
inhibition at up to 83.3 µM [2]: 5% | pIC50 [3, 4]: 6.77

COc1ccc(C(=O)Nc2cc(-c3cnn(C)c3)ccc2N)nn1 [Compound I-254]
inhibition at up to 83.3 µM [2]: 3% | pIC50 [3, 4]: 6.47

CC(=O)Nc1ccc(C(=O)Nc2cc(-c3ccc(F)nc3)ccc2N)nc1 [Compound I-280]
inhibition at up to 83.3 µM [2]: 8% | pIC50 [3, 4]: 7.30

COC1CN(c2cnc(C(=O)Nc3cc(-c4ccc(F)nc4)ccc3N)cn2)C1 [Compound I-283]
pIC50 [3, 4]: 7.30

CC(C)(O)C1CN(c2cnc(C(=O)Nc3cc(-c4ccc(F)nc4)ccc3N)cn2)C1 [Compound I-284]
pIC50 [3, 4]: 7.10

CCNc1cnc(C(=O)Nc2cc(-c3ccc(F)nc3)ccc2N)cn1 [Compound I-285]
pIC50 [3, 4]: 7.40

Nc1ccc(-c2ccc(F)nc2)cc1NC(=O)c1cnc(NC2CCOCC2)cn1 [Compound I-286]
pIC50 [3, 4]: 7.15

Nc1ccc(-c2ccc(F)nc2)cc1NC(=O)c1cnc(OC2CCOCC2)cn1 [Compound I-287]
pIC50 [3, 4]: 6.77

Nc1ccc(-c2ccc(F)nc2)cc1NC(=O)c1cnc(NCC(F)(F)F)cn1 [Compound I-288]
pIC50 [3, 4]: 6.64

CC(C)Oc1ccc(C(=O)Nc2cc(-c3ccc(F)nc3)ccc2N)nn1 [Compound I-289]
pIC50 [3, 4]: 6.70

Cn1cc(-c2ccc(N)c(NC(=O)c3cnc(NC4CCOCC4)cn3)c2)cn1 [Compound I-290]
pIC50 [3, 4]: 6.96

Cn1cc(-c2ccc(N)c(NC(=O)c3cnc(OC4CCOCC4)cn3)c2)cn1 [Compound I-291]
pIC50 [3, 4]: 6.51

Cn1cc(-c2ccc(N)c(NC(=O)c3cnc(NCC(F)(F)F)cn3)c2)cn1 [Compound I-292]
pIC50 [3, 4]: 6.77

CC(C)Oc1ccc(C(=O)Nc2cc(-c3cnn(C)c3)ccc2N)nn1 [Compound I-293]
pIC50 [3, 4]: 6.47

Cn1cc(-c2ccc(N)c(NC(=O)c3cnc(NCc4ccccn4)cn3)c2)cn1 [Compound I-294]
pIC50 [3, 4]: 7.15

CN(Cc1ccccn1)c1cnc(C(=O)Nc2cc(-c3cnn(C)c3)ccc2N)cn1 [Compound I-295]
pIC50 [3, 4]: 7.10

Cn1cc(-c2ccc(N)c(NC(=O)c3cnc(N4CCCOCC4)cn3)c2)cn1 [Compound I-296]
pIC50 [3, 4]: 7.15

Cn1cc(-c2ccc(N)c(NC(=O)c3cnc(N4Cc5cccnc5C4)cn3)c2)cn1 [Compound I-297]
pIC50 [3, 4]: 7.00

Nc1ccc(-n2ccc(F)c2)cc1NC(=O)c1cnc(N2CCCOCC2)cn1 [Compound I-298]
pIC50 [3, 4]: 6.89

CN(C)c1cnc(C(=O)Nc2cc(-n3ccc(F)c3)ccc2N)cn1 [Compound I-299]
pIC50 [3, 4]: 6.92

Nc1ccc(-n2ccc(F)c2)cc1NC(=O)c1cnc(N2CCC2)cn1 [Compound I-300]
pIC50 [3, 4]: 7.15

CC(C)Nc1cnc(C(=O)Nc2cc(-n3ccc(F)c3)ccc2N)cn1 [Compound I-301]
pIC50 [3, 4]: 6.51

Nc1ccc(-n2ccc(F)c2)cc1NC(=O)c1cnc(NCc2ccccn2)cn1 [Compound I-302]
pIC50 [3, 4]: 7.10

Nc1ccc(-c2ccc(F)nc2)cc1NC(=O)c1cnc(N2CCOCC2)cn1 [Compound I-303]
pIC50 [3, 4]: 7.15

CCNc1cnc(C(=O)Nc2cc(-c3cnn(C)c3)ccc2N)cn1 [Compound I-304]
pIC50 ([3]; read-out: IC50 (HDAC2)): 7.15

CC(=O)Nc1ccc(C(=O)Nc2nc(-n3cccc3)ccc2N)nc1 [Compound I-305]
pIC50 ([3]; read-out: IC50 (HDAC2)): 6.89

CCC(=O)Nc1ccc(C(=O)Nc2cc(-c3ccc(F)nc3)ccc2N)nc1 [Compound I-306]
pIC50 ([3]; read-out: IC50 (HDAC2)): 7.32

CCC(=O)Nc1ccc(C(=O)Nc2cc(-c3cnn(C)c3)ccc2N)nc1 [Compound I-307]
pIC50 ([3]; read-out: IC50 (HDAC2)): 7.11

CCC(=O)Nc1ccc(C(=O)Nc2nc(-c3ccccc3)ccc2N)nc1 [Compound I-308]
pIC50 ([3]; read-out: IC50 (HDAC2)): 6.55

CC(=O)Nc1cnc(C(=O)Nc2cc(-c3cnn(C)c3)ccc2N)cn1 [Compound I-309]
pIC50 ([3]; read-out: IC50 (HDAC2)): 6.92

CC(=O)Nc1cnc(C(=O)Nc2cc(-c3ccc(F)nc3)ccc2N)cn1 [Compound I-310]
pIC50 ([3]; read-out: IC50 (HDAC2)): 7.04

CS(=O)(=O)Nc1cnc(C(=O)Nc2cc(-c3ccc(F)nc3)ccc2N)cn1 [Compound I-311]
pIC50 ([3]; read-out: IC50 (HDAC2)): 6.82

Nc1ccc(-c2cccnc2)cc1NC(=O)c1cnc(N2CCOCC2)cn1 [Compound I-312]
pIC50 ([3]; read-out: IC50 (HDAC2)): 7.35

Source: patent US20230119479A1, “A HISTONE DEACETYLASE INHIBITOR HAVING A NITROGEN-CONTAINING AROMATIC HETEROCYCLYL GROUP” (SHIONOGI & CO., LTD., priority 2019, published 2023)
